Common to all, as to assay type: cell-based
Assay [1] can be described thus: Synergy testing by the checkerboard method, FA/co-drug. The following applies: FA combined with the co-drug. On the procedure:
CLSI broth microdilution (BMD) and anaerobic agar dilution (AD) methods were performed. Modifications of standard test methods included adding 10% human serum, adjusting the medium pH to 5, 6, and 8, and synergy was assessed by the checkerboard method. Mutational rates to R were determined at 4×.

In assay [2] the test system is macrolide-resistant S. aureus (ermA, B, C genotype or MLSb-resistant). As to the kind of experiment: Agar dilution MIC against resistant S. aureus. Conditions: Staphylococcus aureus. An excerpt: (§1) The in vitro activity of CEM-102 was compared with that of telithromycin, azithromycin, erythromycin, levofloxacin, linezolid, and doxycycline against a total of 145 resistant S. aureus by agar dilution procedures (CLSI, M7-A7, M100-S18). The tested strains included S. aureus MRSA (Mec A genotype; 100 isolates), macrolide-resistant (ermA, B, C genotype or MLSb-resistant; 25), and ciprofloxacin-resistant (gyrA and parC genotype; 20).

Assay [3] deals with S. aureus MRSA (Mec A genotype). Kind of assay: Agar dilution MIC against resistant S. aureus. Conditions: Staphylococcus aureus.
Description: as §1
A general note: In agar dilution, organisms are placed on agar that contains the substance at set levels.

Assay [4] has as its system ciprofloxacin-resistant (gyrA and parC genotype) S. aureus. Kind of assay: Agar dilution MIC against resistant S. aureus. The following applies: Staphylococcus aureus.
Description: as §1

Another assay relates to S. pyogenes [SPYO]. Kind of assay: Reference broth microdilution susceptibility testing, Canadian isolates. An excerpt: (§2) To determine a contemporary susceptibility (S) spectrum pattern. 153 GP isolates (123 S. aureus, 15 coagulase-negative staphylococci [CoNS] and 15 S. pyogenes [SPYO]) were collected from 5 Canadian medical centers between 2001 and 2006.
(In general: Dilution methods test growth across graded concentrations, often in twofold steps.)

Assay [5] deals with S. aureus. The assay is described as above. Conditions: overall S. aureus population.
Description: as §2

For assay [6], the system named is S. aureus. Kind of assay: MIC population distribution, 217 S. aureus Canadian isolates. The following applies: 217 Canadian isolates.

In brackets after ≈: the same amount, converted by molar mass.

For orientation: MIC90 means an inhibitory concentration at the 90% level, which refers to growth in some studies and to a panel of isolates in others. Low values mean greater potency, high ones weaker potency.

Take `Cc1onc(-c2ccccc2)c1C(=O)N[C@@H]1C(=O)N2[C@@H]1SC(C)(C)[C@@H]2C(=O)O` [Oxacillin]: in assay [1], the “Additive (number)” value came out at 1, the “Antagonism (number)” value is recorded as 0, the “Indeterminate (number)” value was 1 and the “Indifferent (number)” value stood at 3. For the same compound, in assay [1], the “Synergy Complete (number)” value is listed as 0 and the “Synergy Partial (number)” value is given as 1.
On to `C[C@H]1COc2c(N3CCN(C)CC3)c(F)cc3c(=O)c(C(=O)O)cn1c23` [Levofloxacin], for which, in assay [1], the “Additive (number)” value is given as 0, the “Antagonism (number)” value came to 0, the “Indeterminate (number)” value amounted to 2 and the “Indifferent (number)” value is recorded as 4. For the same compound, in assay [1], the “Synergy Complete (number)” value is 0 and the “Synergy Partial (number)” value is 0. For the same compound, the MIC90 in assay [2] was 4 µg/mL (≈ 11.1 µM). Besides, the MIC90 in assay [3] came out at 16 µg/mL (≈ 44.3 µM). This compound yielded an MIC90 in assay [4] of over 32 µg/mL.
Consider Gentamicin, for which, in assay [1], the “Additive (number)” value amounted to 3, the “Antagonism (number)” value turned out to be 0, the “Indeterminate (number)” value is recorded as 0 and the “Indifferent (number)” value amounted to 1. Besides, in assay [1], the “Synergy Complete (number)” value was 1 and the “Synergy Partial (number)” value was 1.
For `C[C@H]1c2cccc(O)c2C(=O)C2=C(O)[C@]3(O)C(=O)C(C(N)=O)=C(O)[C@@H](N(C)C)[C@@H]3[C@@H](O)[C@@H]21` [doxycycline], the MIC90 in assay [3] and in assay [4] was 1 µg/mL (≈ 2.25 µM) each time.
Turning to `CCC[C@@H]1C[C@@H](C(=O)N[C@@H]([C@H]2O[C@H](SC)[C@H](O)[C@@H](O)[C@H]2O)[C@H](C)Cl)N(C)C1` [clindamycin], the R rate with S. pyogenes [SPYO] is listed as 13.3%; in the assay on S. aureus [5], 28.5%. In the assay on S. aureus [6], the resistance rate came to 30.9%.
Take `CC[C@H]1OC(=O)[C@H](C)C(=O)[C@H](C)[C@@H](O[C@@H]2O[C@H](C)C[C@H](N(C)C)[C@H]2O)[C@](C)(OC)C[C@@H](C)C(=O)[C@H](C)[C@H]2N(CCCCn3cnc(-c4cccnc4)c3)C(=O)O[C@]12C` [telithromycin]: the values for the MIC90 in assay [2], in assay [3] and in assay [4] were 4 µg/mL (≈ 4.93 µM), 0.06 µg/mL (≈ 0.0739 µM) and 0.06 µg/mL (≈ 0.0739 µM), respectively.
As for `CC(=O)NC[C@H]1CN(c2ccc(N3CCOCC3)c(F)c2)C(=O)O1` [linezolid], the MIC90 in assay [2], in assay [3] and in assay [4] was 2 µg/mL (≈ 5.93 µM) in each case.
On to `CC[C@H]1OC(=O)[C@H](C)[C@@H](O[C@H]2C[C@@](C)(OC)[C@@H](O)[C@H](C)O2)[C@H](C)[C@@H](O[C@@H]2O[C@H](C)C[C@H](N(C)C)[C@H]2O)[C@](C)(O)C[C@@H](C)CN(C)[C@H](C)[C@@H](O)[C@]1(C)O` [azithromycin], for which the MIC90 in assay [2] was over 32 µg/mL; in assay [3], over 32 µg/mL; in assay [4], 16 µg/mL (≈ 21.4 µM).
Take `CN[C@H](CC(C)C)C(=O)N[C@H]1C(=O)N[C@@H](CC(N)=O)C(=O)N[C@H]2C(=O)N[C@H]3C(=O)N[C@H](C(=O)N[C@H](C(=O)O)c4cc(O)cc(O)c4-c4cc3ccc4O)[C@H](O)c3ccc(c(Cl)c3)Oc3cc2cc(c3O[C@@H]2O[C@H](CO)[C@@H](O)[C@H](O)[C@H]2O[C@H]2C[C@](C)(N)[C@H](O)[C@H](C)O2)Oc2ccc(cc2Cl)[C@H]1O` [Vancomycin]: in assay [1], the “Additive (number)” value is recorded as 2, the “Antagonism (number)” value is reported as 0, the “Indeterminate (number)” value was 0 and the “Indifferent (number)” value came out at 4. For the same compound, in assay [1], the “Synergy Complete (number)” value is listed as 0 and the “Synergy Partial (number)” value was found to be 0.
On to `CC[C@H]1OC(=O)[C@H](C)[C@@H](O[C@H]2C[C@@](C)(OC)[C@@H](O)[C@H](C)O2)[C@H](C)[C@@H](O[C@@H]2O[C@H](C)C[C@H](N(C)C)[C@H]2O)[C@](C)(O)C[C@@H](C)C(=O)[C@H](C)[C@@H](O)[C@]1(C)O` [erythromycin], for which the values for the R rate in the assay with S. pyogenes [SPYO] and in the assay with S. aureus [5] were 20.0% and 52.0%, respectively. In the assay on S. aureus [6], this compound yielded a resistance rate of 52.1%. Besides, the MIC90 in assay [2], in assay [3] and in assay [4] was over 32 µg/mL each time.
Take `CO[C@H]1/C=C/O[C@@]2(C)Oc3c(C)c(O)c4c(O)c(c(/C=N/N5CCN(C)CC5)c(O)c4c3C2=O)NC(=O)/C(C)=C\C=C\[C@H](C)[C@H](O)[C@@H](C)[C@@H](O)[C@@H](C)[C@H](OC(C)=O)[C@@H]1C` [Rifampin]: in assay [1], the “Additive (number)” value was 1, the “Antagonism (number)” value amounted to 0, the “Indeterminate (number)” value was 0 and the “Indifferent (number)” value was 0. Moreover, in assay [1], the “Synergy Complete (number)” value amounted to 0 and the “Synergy Partial (number)” value was 5.

The record behind these values is patent US20190388437A1, “COMPOSITIONS AND METHODS FOR TREATING BONE AND JOINT INFECTIONS” (priority 2014, published 2019).
